The compounds below were run on Escherichia coli ATCC 25922 (assay: 50% growth inhibitory concentration (IC50) determination, Iso-Sensitest broth dilution). Conditions: Escherichia coli, ATCC25922, 16 h, strain Escherichia coli ATCC 25922; 10-point broth dilution, optical density at 600 nm over 16 h; read-out: Escherichia coli growth inhibition IC50.
Format: cell-based
Outline: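 Growth was tracked as optical density at 600 nm every 20 minutes for 16 h at 35±2° C. Compounds from DMSO stocks were serially diluted twofold over 10 points (e.g. 50–0.097 μM final) in Iso-Sensitest broth. Inhibition computed in log-phase growth to give IC50.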

Row | IC50 [nM] | SMILES
1 | 617 | O=C1COc2ncc(N3CC(CCNCC4Cc5cc(OCCn6nccn6)cc(F)c5C4)OC3=O)nc2N1 (stereo not shown) [Example 343, 6-[5-[2-[[4-fluoro-6-(2-(triazol-2-yl)ethoxy]-2,3-dihydro-1H-inden-2-yl]methylamino]ethyl]-2-oxo-1,3-oxazolidin-3-yl]-4H-pyrazino[2,3-b][1,4]oxazin-3-one; formic acid]
2 | < 97.7 | N#Cc1cc(OCc2cc[nH]n2)cc2c1CC(CNCCC1CN(c3cnc4c(n3)NC(=O)CO4)C(=O)O1)C2 (stereo not shown) [Example 404, 2-[[2-[2-oxo-3-(3-oxo-4H-pyrazino[2,3-b][1,4]oxazin-6-yl)-1,3-oxazolidin-5-yl]ethylamino]methyl]-6-(1H-pyrazol-3-ylmethoxy)-2,3-dihydro-1H-indene-4-carbonitrile; formic acid]
3 | 1270 | Cc1nnc(C)c2c1CC(CNCCC1CN(c3ccc4c(n3)NC(=O)CO4)C(=O)O1)C2 (stereo not shown) [Example 284, 6-[5-[2-[(1,4-dimethyl-6,7-dihydro-5H-cyclopenta[d]pyridazin-6-yl)methylamino]ethyl]-2-oxo-1,3-oxazolidin-3-yl]-4H-pyrido[3,2-b][1,4]oxazin-3-one]
4 | < 97.7 | COCC(N)COc1cc(F)c2c(c1)CC(CNCCC1CN(c3ccc4c(n3)NC(=O)CO4)C(=O)O1)C2 (stereo not shown) [Example 248, 6-[5-[2-[[6-(2-amino-3-methoxypropoxy)-4-fluoro-2,3-dihydro-1H-inden-2-yl]methylamino]ethyl]-2-oxo-1,3-oxazolidin-3-yl]-4H-pyrido[3,2-b][1,4]oxazin-3-one]
5 | 188 | N#Cc1cc(OC2CCNC2)cc2c1CC(CNCCC1CN(c3ccc4c(n3)NC(=O)CO4)C(=O)O1)C2 (stereo not shown) [Example 254, 2-[[2-[2-Oxo-3-(3-oxo-4H-pyrido[3,2-b][1,4]oxazin-6-yl)-1,3-oxazolidin-5-yl]ethylamino]methyl]-6-pyrrolidin-3-yloxy-2,3-dihydro-1H-indene-4-carbonitrile; formic acid]
6 | < 97.7 | N[C@@H]1c2cc(OCC3(N)CC3)cc(Cl)c2C[C@H]1CN1CCC2(CC1)CN(c1ccc3c(n1)NC(=O)CO3)C(=O)O2 (racemic) [Example 274, 6-[2-Oxo-8-[[rac-1,2-trans-1-amino-6-[(1-aminocyclopropyl)methoxy]-4-chloro-2,3-dihydro-1H-inden-2-yl]methyl]-1-oxa-3,8-diazaspiro[4.5]decan-3-yl]-4H-pyrido[3,2-b][1,4]oxazin-3-one; formic acid]
7 | < 97.7 | Cc1nccc2c1CC(CNCCc1cn(-c3cnc4c(n3)NC(=O)CO4)c(=O)o1)C2 (stereo not shown) [Example 371, 6-[5-[2-[(1-methyl-6,7-dihydro-5H-cyclopenta[c]pyridin-6-yl)methylamino]ethyl]-2-oxo-1,3-oxazol-3-yl]-4H-pyrazino[2,3-b][1,4]oxazin-3-one]
8 | < 97.7 | Cc1ncc(F)c2c1CC(CNCCC1CC(=O)N(c3ccc4c(n3)NC(=O)CO4)C1)C2 (stereo not shown) [Example 417, 6-[4-[2-[(4-Fluoro-1-methyl-6,7-dihydro-5H-cyclopenta[c]pyridin-6-yl)methylamino]ethyl]-2-oxopyrrolidin-1-yl]-4H-pyrido[3,2-b][1,4]oxazin-3-one]
9 | < 97.7 | O=C1COc2ncc(N3CC4(CCN(CC5Cc6ccnc(Cl)c6C5)CC4)OC3=O)nc2N1 (stereo not shown) [Example 373, 6-[8-[(1-chloro-6,7-dihydro-5H-cyclopenta[c]pyridin-6-yl)methyl]-2-oxo-1-oxa-3,8-diazaspiro[4.5]decan-3-yl]-4H-pyrazino[2,3-b][1,4]oxazin-3-one]

Further lines, the compound ahead of its results:

Row | SMILES | IC50 [nM]
10 | Cc1nc(OCCNC(C)C)c(C)c2c1CC(CNCCC1CN(c3ccc4c(n3)NC(=O)CO4)C(=O)O1)C2 (stereo not shown) [Example 201, 6-[5-[2-[[1,4-dimethyl-3-[2-(propan-2-ylamino)ethoxy]-6,7-dihydro-5H-cyclopenta[c]pyridin-6-yl]methylamino]ethyl]-2-oxo-1,3-oxazolidin-3-yl]-4H-pyrido[3,2-b][1,4]oxazin-3-one] | 157
11 | O=C1COc2ccc(N3CC(CCNC4Cc5ccc(Cl)cc5C4)OC3=O)nc2N1 (stereo not shown) [Example 11, 6-[5-[2-[(5-chloro-2,3-dihydro-1H-inden-2-yl)amino]ethyl]-2-oxo-1,3-oxazolidin-3-yl]-4H-pyrido[3,2-b][1,4]oxazin-3-one] | 2400
12 | N#Cc1cccc2c1CC(NCCNC1CC(=O)N(c3ccc4c(n3)NC(=O)CO4)C1)C2 (stereo not shown) [Example 121, 2-[2-[[5-oxo-1-(3-oxo-4H-pyrido[3,2-b][1,4]oxazin-6-yl)pyrrolidin-3-yl]amino]ethylamino]-2,3-dihydro-1H-indene-4-carbonitrile] | 167
13 | N#Cc1cccc2c1CC(CNCCC1CN(c3ccc4c(c3)NC(=O)CO4)C(=O)O1)C2 (stereo not shown) [Example 18, 2-[[2-[2-oxo-3-(3-oxo-4H-1,4-benzoxazin-6-yl)-1,3-oxazolidin-5-yl]ethylamino]methyl]-2,3-dihydro-1H-indene-4-carbonitrile; formic acid] | < 97.7
14 | O=C1COc2ccc(N3C[C@@H](NC4CC(NC5Cc6cccc(F)c6C5)C4)CC3=O)nc2N1 (stereo partly drawn) [Example 24, 6-[(4S)-4-[[3-[(4-fluoro-2,3-dihydro-1H-inden-2-yl)amino]cyclobutyl]amino]-2-oxopyrrolidin-1-yl]-4H-pyrido[3,2-b][1,4]oxazin-3-one] | 1810
15 | CNC(=O)COc1cc(C)c2c(c1C)CC(CNCCC1CN(c3ccc4c(n3)NC(=O)CS4)C(=O)O1)C2 (stereo not shown) [Example 114, 2-[[4,7-dimethyl-2-[[2-[2-oxo-3-(3-oxo-4H-pyrido[3,2-b][1,4]thiazin-6-yl)-1,3-oxazolidin-5-yl]ethylamino]methyl]-2,3-dihydro-1H-inden-5-yl]oxy]-N-methylacetamide] | 217
16 | Cc1ncc(F)c2c1CC(NCCCC1CN(c3cnc4c(n3)NC(=O)CO4)C(=O)O1)C2 (stereo not shown) [Example 79, 6-[5-[3-[(4-fluoro-1-methyl-6,7-dihydro-5H-cyclopenta[c]pyridin-6-yl)amino]propyl]-2-oxo-1,3-oxazolidin-3-yl]-4H-pyrazino[2,3-b][1,4]oxazin-3-one] | < 97.7
17 | Cc1c(OCC2CNC(=O)CN2)nc(C#N)c2c1CC(CN1CCC3(CC1)CN(c1ccc4c(n1)NC(=O)CO4)C(=O)O3)C2 (stereo not shown) [Example 220, 4-methyl-6-((2-oxo-3-(3-oxo-3,4-dihydro-2H-pyrido[3,2-b][1,4]oxazin-6-yl)-1-oxa-3,8-diazaspiro[4.5]decan-8-yl)methyl)-3-((5-oxopiperazin-2-yl)methoxy)-6,7-dihydro-5H-cyclopenta[c]pyridine-1-carbonitrile] | 319
18 | N#Cc1cccc2c1CC(CNCCC1CN(c3ccc4c(n3)NC(=O)CS4)C(=O)O1)C2N (racemic) [Example 247, rac-1,2-trans-1-amino-2-[[2-[2-oxo-3-(3-oxo-4H-pyrido[3,2-b][1,4]thiazin-6-yl)-1,3-oxazolidin-5-yl]ethylamino]methyl]-2,3-dihydro-1H-indene-4-carbonitrile] | < 97.7

Same assay, conditions: strain Escherichia coli ATCC 25922; 10-point broth dilution, optical density at 600 nm over 16 h; read-out: Escherichia coli growth inhibition IC50

Row | IC50 [nM] | SMILES
19 | < 97.7 | Cc1ncc(C#N)c2c1CC(NCCCc1cn(-c3cnc4c(n3)NC(=O)CO4)c(=O)o1)C2 (single isomer, unassigned; enantiomer b) [Example 322, 1-Methyl-6-[3-[2-oxo-3-(3-oxo-4H-pyrazino[2,3-b][1,4]oxazin-6-yl)-1,3-oxazol-5-yl]propylamino]-6,7-dihydro-5H-cyclopenta[c]pyridine-4-carbonitrile, Enantiomer B]
